Reference: patent publication US8575168B2, “Compounds and compositions as modulators of GPR119 activity” (IRM LLC, priority 2009, dated 2013)

Each compound was assayed against T1, human GPR119 (Homo sapiens, UniProt Q8TDV5) (assay: Cyclic AMP Assay in Stable Cell Line (HTRF)). Conditions: Flp-In-CHO-hGPR119 cells, intracellular cAMP, 30 minutes at 37° C., 1 mM IBMX.
T1 construct: expressed in transfected cells
T1 sequence (Q8TDV5 1-335): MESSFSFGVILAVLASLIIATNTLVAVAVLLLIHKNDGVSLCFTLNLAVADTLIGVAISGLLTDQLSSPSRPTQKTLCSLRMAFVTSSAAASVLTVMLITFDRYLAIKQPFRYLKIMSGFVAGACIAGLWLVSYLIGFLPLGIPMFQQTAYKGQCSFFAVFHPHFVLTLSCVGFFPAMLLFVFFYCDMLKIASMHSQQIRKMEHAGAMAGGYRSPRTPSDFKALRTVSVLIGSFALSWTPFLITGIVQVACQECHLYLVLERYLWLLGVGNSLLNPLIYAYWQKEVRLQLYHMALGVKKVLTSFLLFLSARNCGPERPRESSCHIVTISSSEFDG
Format: cell-based
Experimental: Flp-In-CHO cells (Invitrogen, Cat. #R758-07) are maintained in Ham's F12 medium supplemented with 10% fetal bovine serum, 1% antibiotic mixture and 2 mM L-glutamine. The cells are transfected with a DNA mixture containing human GPR119 in pcDNA5/FRT vector and the pOG44 vector (1:9) using Fugene6 (Roche), according to the manufacturer's instruction. After 48 hours, the medium is changed to medium supplemented with 400 μg/ml hygromycin B to initiate the selection of stably transfected cells.
To test the activity of compounds of the invention, Flp-In-CHO-hGPR119 cells are harvested and resuspended in DMEM plus 3% lipid-depleted fetal bovine serum. Forth μl of cells are plated in 384 well plates at a density of 15,000 cells/well. IBMX (3-isobutyl-1-methyl-xanthine) is added to the cells to a final concentration of 1 mM, followed by the addition of 500 nl of the compound to be tested. The cells are incubated at 37° C. for 30 minutes. Equal volume (20 μl) of the HTRF reagents, anti-cAMP-Cryptate and cAMP-XL665, are added to the cells. The plates are incubated at room temperature for 1 hour and read on a HTRF reader according to the manufacturer's instruction.

EC50	SMILES
131 nM	CS(=O)(=O)N1CCC(c2cc(F)c(OC3CN(Cc4nc(C5CC5)no4)C3)c(F)c2)CC1 [Example B10]
397 nM	CC(C)c1nc(CN2CC(Oc3c(F)cc(C4CCN(S(C)(=O)=O)CC4)cc3F)C2)no1 [Example B11]
55 nM	CS(=O)(=O)N1CCC(c2cc(F)c(OC3CN(Cc4nc(C(F)(F)F)no4)C3)c(F)c2)CC1 [Example B12]
108 nM	CC(F)(F)c1noc(CN2CC(Oc3c(F)cc(C4CCN(S(C)(=O)=O)CC4)cc3F)C2)n1 [Example B13]
70 nM	Cn1nc(C(F)(F)F)cc1CN1CCC(Oc2c(F)cc(C3CCN(S(C)(=O)=O)CC3)cc2F)CC1 [Example B14]
97 nM	Cn1nc(C(F)(F)F)cc1CN1CC(Oc2c(F)cc(C3CCN(S(C)(=O)=O)CC3)cc2F)C1 [Example B15]
9 nM	CS(=O)(=O)N1CCC(c2cc(F)c(OC3CCN(Cc4nc(C(F)(F)F)cs4)CC3)c(F)c2)CC1 [Example B16]
74 nM	CS(=O)(=O)N1CCC(c2cc(F)c(OC3CN(Cc4nc(C(F)(F)F)cs4)C3)c(F)c2)CC1 [Example B17]
52 nM	CS(=O)(=O)N1CCC(c2cc(F)c(OC3CCN(Cc4csc(C(F)(F)F)n4)CC3)c(F)c2)CC1 [Example B18]
448 nM	CS(=O)(=O)N1CCC(c2cc(F)c(OC3CN(Cc4csc(C(F)(F)F)n4)C3)c(F)c2)CC1 [Example B19]
208 nM	Cn1nc(C(F)(F)F)nc1CN1CCC(Oc2c(F)cc(C3CCN(S(C)(=O)=O)CC3)cc2F)CC1 [Example B20]
244 nM	Cn1nc(C(F)(F)F)nc1CN1CC(Oc2c(F)cc(C3CCN(S(C)(=O)=O)CC3)cc2F)C1 [Example B21]
443 nM	CS(=O)(=O)N1CCC(c2cc(F)c(OC3CCN(Cc4noc(C(F)(F)F)n4)CC3)c(F)c2)CC1 [Example B22]
210 nM	CS(=O)(=O)N1CCC(c2cc(F)c(OC3CN(Cc4noc(C(F)(F)F)n4)C3)c(F)c2)CC1 [Example B23]
6 nM	CC(C)c1noc(CN2CCC(Oc3c(F)cc(C4CCN(S(C)(=O)=O)CC4)cc3F)CC2)n1 [Example B24]
37 nM	CS(=O)(=O)N1CCC(c2ccc(OC3CCN(Cc4nc(C(F)(F)F)no4)CC3)cc2)CC1 [Example B26]
11 nM	CS(=O)(=O)N1CCC(c2ccc(OC3CCN(Cc4nc(C(F)(F)F)no4)CC3)c(F)c2F)CC1 [Example B27]
5 nM	CS(=O)(=O)N1CCC(c2cc(F)c(OC3CCN(Cc4nc(C(F)(F)F)no4)CC3)cc2F)CC1 [Example B28]
50 nM	CS(=O)(=O)N1CCC(c2c(F)cc(OC3CCN(Cc4nc(C(F)(F)F)no4)CC3)cc2F)CC1 [Example B29]
78 nM	CC(c1nc(C(F)(F)F)no1)N1CCC(Oc2c(F)cc(C3CCN(S(C)(=O)=O)CC3)cc2F)CC1 (stereo not drawn) [Example B30]
144 nM	CS(=O)(=O)N1CCC(c2cc(F)c(OC3CCN(Cc4ccc(C(F)(F)F)cc4)C3)c(F)c2)CC1 (stereo not drawn) [Example C1, 4-(3,5-Difluoro-4-(1-(4-(trifluoromethyl)benzyl)pyrrolidin-3-yloxy)phenyl)-1-(methylsulfonyl)piperidine]
125 nM	CS(=O)(=O)N1CCC(c2cc(F)c(OC3CCCN(Cc4ccc(C(F)(F)F)cc4)CC3)c(F)c2)CC1 (stereo not drawn) [Example C2]
644 nM	CC1(Oc2c(F)cc(C3CCN(S(C)(=O)=O)CC3)cc2F)CN(Cc2ccc(C(F)(F)F)cc2)C1 [Example C3]
199 nM	CS(=O)(=O)N1CCC(F)(c2cc(F)c(OC3CCN(Cc4nc(C(F)(F)F)no4)CC3)c(F)c2)CC1 [Example D1, 5-((4-(2,6-difluoro-4-(4-fluoro-1-(methylsulfonyl)piperidin-4-yl)phenoxy)piperidin-1-yl)methyl)-3-(trifluoromethyl)-1,2,4-oxadiazole]
